Experimental data from US20120264735A1 (priority 2009, published 2012).

Molecular target: T1, c-Met kinase (recombinant c-Met) (Homo sapiens, UniProt P08581)
T1 construct: 0.27 nM recombinant c-Met
Assay: In vitro kinase assay I (homogeneous time-resolved fluorescence tyrosine kinase assay)
Type: biochemical
In short: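 Biotinylated peptide (0.5 μM) phosphorylated by 0.2 nM recombinant c-Met with 50 μM MgATP, 60 min at room temperature, pH 7.4, 5% DMSO. EDTA stop; HTRF read with Eu-anti-phosphotyrosine antibody and streptavidin-APC. IC50 from 4-parameter logistic fit.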

T1 sequence (P08581 25-1390): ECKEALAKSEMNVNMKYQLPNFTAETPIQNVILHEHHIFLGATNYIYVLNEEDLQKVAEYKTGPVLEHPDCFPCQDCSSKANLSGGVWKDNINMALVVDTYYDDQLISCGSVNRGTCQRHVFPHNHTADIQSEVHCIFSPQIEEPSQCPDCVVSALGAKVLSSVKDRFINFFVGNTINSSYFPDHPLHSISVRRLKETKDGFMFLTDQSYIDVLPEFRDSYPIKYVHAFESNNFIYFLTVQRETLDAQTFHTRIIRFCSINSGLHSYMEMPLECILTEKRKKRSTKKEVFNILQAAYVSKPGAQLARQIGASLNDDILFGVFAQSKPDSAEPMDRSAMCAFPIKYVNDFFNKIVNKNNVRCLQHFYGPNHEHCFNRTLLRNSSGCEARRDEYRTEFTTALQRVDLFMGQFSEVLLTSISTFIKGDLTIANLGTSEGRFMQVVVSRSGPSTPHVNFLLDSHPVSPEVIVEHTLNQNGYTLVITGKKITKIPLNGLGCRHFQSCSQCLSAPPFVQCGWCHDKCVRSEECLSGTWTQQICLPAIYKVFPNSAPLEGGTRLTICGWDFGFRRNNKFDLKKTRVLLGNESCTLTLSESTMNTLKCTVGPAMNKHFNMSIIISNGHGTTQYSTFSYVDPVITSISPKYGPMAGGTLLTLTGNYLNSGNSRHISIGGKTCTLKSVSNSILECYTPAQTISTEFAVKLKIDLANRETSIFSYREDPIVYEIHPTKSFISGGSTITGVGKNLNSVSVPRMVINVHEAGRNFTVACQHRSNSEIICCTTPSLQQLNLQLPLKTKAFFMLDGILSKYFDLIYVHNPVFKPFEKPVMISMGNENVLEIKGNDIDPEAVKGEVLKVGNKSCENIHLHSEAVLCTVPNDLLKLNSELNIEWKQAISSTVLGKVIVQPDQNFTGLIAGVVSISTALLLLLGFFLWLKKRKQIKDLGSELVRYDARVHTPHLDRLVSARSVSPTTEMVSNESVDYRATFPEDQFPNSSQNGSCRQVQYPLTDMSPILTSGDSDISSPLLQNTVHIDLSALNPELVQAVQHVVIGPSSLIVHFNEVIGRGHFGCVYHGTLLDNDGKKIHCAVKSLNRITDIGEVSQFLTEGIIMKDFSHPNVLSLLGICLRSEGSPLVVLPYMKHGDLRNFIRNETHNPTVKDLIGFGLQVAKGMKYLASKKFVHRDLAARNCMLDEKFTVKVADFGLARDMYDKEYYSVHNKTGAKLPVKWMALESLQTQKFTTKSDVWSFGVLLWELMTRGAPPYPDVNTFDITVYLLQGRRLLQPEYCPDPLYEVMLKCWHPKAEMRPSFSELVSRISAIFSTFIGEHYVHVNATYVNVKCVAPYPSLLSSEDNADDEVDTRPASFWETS

Structure (SMILES) | IC50 [nM]
CCOc1cnc(-c2cc(Cc3nn(-c4cnn(C)c4)ccc3=O)ccc2F)nc1 [Example 119, 3-[3-(5-ethoxypyrimidin-2-yl)-4-fluorobenzyl]-1-(1-methyl-1H-pyrazol-4-yl)pyridazin-4(1H)-one] | 100 to 1000
CCOc1cnc(-c2cccc(Cc3nn(-c4cnn(C)c4)ccc3=O)c2F)nc1 [Example 121, 3-[3-(5-ethoxypyrimidin-2-yl)-2-fluorobenzyl]-1-(1-methyl-1H-pyrazol-4-yl)pyridazin-4(1H)-one] | 100 to 1000
COCCOc1cnc(-c2cccc(Cc3nn(-c4ccc(C#N)cc4)ccc3=O)c2)nc1 [Example 138, 4-[3-{3-[5-(2-methoxyethoxy)pyrimidin-2-yl]benzyl}-4-oxopyridazin-1(4H)-yl]benzonitrile] | < 100
CCOc1cnc(-c2cccc(Cc3nn(-c4cc(Cl)cc(C#N)c4)ccc3=O)c2)nc1 [Example 140, 3-chloro-5-{3-[3-(5-ethoxypyrimidin-2-yl)benzyl]-4-oxopyridazin-1(4H)-yl}benzonitrile] | < 100
COc1ccnc2ccc(Cc3nn(-c4cnn(C)c4)ccc3=O)cc12 [Example 142, 3-[(4-methoxyquinolin-6-yl)methyl]-1-(1-methyl-1H-pyrazol-4-yl)pyridazin-4(1H)-one] | 100 to 1000
CCOc1cnc(-c2cccc(Cc3nn(-c4cccc(Br)c4)ccc3=O)c2)nc1 [Example 143, 1-(3-bromophenyl)-3-[3-(5-ethoxypyrimidin-2-yl)benzyl]pyridazin-4(1H)-one] | < 100
COCCOc1cnc(-c2cccc(Cc3nn(-c4ccc(C#N)c(F)c4)ccc3=O)c2)nc1 [Example 144, 2-fluoro-4-[3-{3-[5-(2-methoxyethoxy)pyrimidin-2-yl]benzyl}-4-oxopyridazin-1(4H)-yl]benzonitrile] | < 100
CCOc1cnc(-c2cccc(Cc3nn(-c4ccc(Br)c(F)c4)ccc3=O)c2)nc1 [Example 145, 1-(4-Bromo-3-fluorophenyl)-3-[3-(5-ethoxypyrimidin-2-yl)benzyl]pyridazin-4(1H)-one] | < 100
CCOc1cnc(-c2cccc(Cc3nn(-c4cc(F)cc(F)c4)ccc3=O)c2)nc1 [Example 146, 1-(3,5-difluorophenyl)-3-[3-(5-ethoxypyrimidin-2-yl)benzyl]pyridazin-4(1H)-one] | < 100
CCOc1cnc(-c2cccc(Cc3nn(-c4cc(F)c(Br)c(F)c4)ccc3=O)c2)nc1 [Example 147, 1-(4-bromo-3,5-difluorophenyl)-3-[3-(5-ethoxypyrimidin-2-yl)benzyl]pyridazin-4(1H)-one] | < 100
CCOc1cnc(-c2cccc(Cc3nn(-c4ccc(C#N)c(F)c4)ccc3=O)c2)nc1 [Example 148, 4-{3-[3-(5-ethoxypyrimidin-2-yl)benzyl]-4-oxopyridazin-1(4H)-yl}-2-fluorobenzonitrile] | < 100
COCCOc1cnc(-c2cccc(Cc3nn(-c4cc(F)cc(F)c4)ccc3=O)c2)nc1 [Example 149, 1-(3,5-difluorophenyl)-3-{3-[5-(2-methoxyethoxy)pyrimidin-2-yl]benzyl}pyridazin-4(1H)-one] | < 100
CCOc1cnc(-c2cccc(Cc3nn(-c4cnn(CC)c4)ccc3=O)c2)nc1 [Example 150, 3-[3-(5-ethoxypyrimidin-2-yl)benzyl]-1-(1-ethyl-1H-pyrazol-4-yl)pyridazin-4(1H)-one] | < 100
CCn1cc(-n2ccc(=O)c(Cc3cccc(-c4ncc(OCCOC)cn4)c3)n2)cn1 [Example 151, 1-(1-ethyl-1H-pyrazol-4-yl)-3-{3-[5-(2-methoxyethoxy)pyrimidin-2-yl]benzyl}pyridazin-4(1H)-one] | < 100
CCOc1cnc(-c2cccc(Cc3nn(-c4ccc(Cl)c(F)c4)ccc3=O)c2)nc1 [Example 152, 1-(4-chloro-3-fluorophenyl)-3-[3-(5-ethoxypyrimidin-2-yl)benzyl]pyridazin-4(1H)-one] | < 100
COCCOc1cnc(-c2cccc(Cc3nn(-c4ccc(Cl)c(F)c4)ccc3=O)c2)nc1 [Example 153, 1-(4-chloro-3-fluorophenyl)-3-{3-[5-(2-methoxyethoxy)pyrimidin-2-yl]benzyl}pyridazin-4(1H)-one] | < 100

More lines, now with the values ahead:

IC50 [nM] | Structure (SMILES)
< 100 | CCCn1cc(-n2ccc(=O)c(Cc3cccc(NC(=O)OCC(C)C)c3)n2)cn1 [Example 113, 2-methylpropyl (3-{[4-oxo-1-(1-propyl-1H-pyrazol-4-yl)-1,4-dihydropyridazin-3-yl]methyl}phenyl)carbamate]
< 100 | CCCn1cc(-n2ccc(=O)c(Cc3cccc(-c4ncc(OC)cn4)c3)n2)cn1 [Example 114, 3-[3-(5-methoxypyrimidin-2-yl)benzyl]-1-(1-propyl-1H-pyrazol-4-yl)pyridazin-4(1H)-one]
< 100 | CCn1cc(-n2ccc(=O)c(Cc3cccc(NC(=O)OCCN4CCOCC4)c3)n2)cn1 [Example 115, 2-morpholin-4-ylethyl (3-{[1-(1-ethyl-1H-pyrazol-4-yl)-4-oxo-1,4-dihydropyridazin-3-yl]methyl}phenyl)carbamate]
< 100 | O=C(Nc1cccc(Cc2nn(-c3cnn(CC(F)(F)F)c3)ccc2=O)c1)OCCN1CCOCC1 [Example 116, 2-morpholin-4-ylethyl [3-({4-oxo-1-[1-(2,2,2-trifluoroethyl)-1H-pyrazol-4-yl]-1,4-dihydropyridazin-3-yl}methyl)phenyl]carbamate]
< 100 | CCCn1cc(-n2ccc(=O)c(Cc3cccc(NC(=O)OCCN4CCOCC4)c3)n2)cn1 [Example 117, 2-morpholin-4-ylethyl (3-{[4-oxo-1-(1-propyl-1H-pyrazol-4-yl)-1,4-dihydropyridazin-3-yl]methyl}phenyl)carbamate]
< 100 | CCOc1cnc(-c2ccc(F)c(Cc3nn(-c4cnn(C)c4)ccc3=O)c2)nc1 [Example 118, 3-[5-(5-ethoxypyrimidin-2-yl)-2-fluorobenzyl]-1-(1-methyl-1H-pyrazol-4-yl)pyridazin-4(1H)-one]
< 100 | CCOc1cnc(-c2cc(F)cc(Cc3nn(-c4cnn(C)c4)ccc3=O)c2)nc1 [Example 120, 3-[3-(5-ethoxypyrimidin-2-yl)-5-fluorobenzyl]-1-(1-methyl-1H-pyrazol-4-yl)pyridazin-4(1H)-one]
< 100 | Cn1cc(-n2ccc(=O)c(Cc3cccc(-c4ncc(O[C@H]5CC[C@](C)(O)CC5)cn4)c3)n2)cn1 [Example 122, 3-(3-{5-[(trans-4-hydroxy-4-methylcyclohexyl)oxy]pyrimidin-2-yl}benzyl)-1-(1-methyl-1H-pyrazol-4-yl)pyridazin-4(1H)-one]
< 100 | Cn1cc(-n2ccc(=O)c(Cc3cccc(-c4ncc(OC5CCC6(CC5)OCCO6)cn4)c3)n2)cn1 [Example 123, 3-{3-[5-(1,4-dioxaspiro[4.5]dec-8-yloxy)pyrimidin-2-yl]benzyl}-1-(1-methyl-1H-pyrazol-4-yl)pyridazin-4(1H)-one]
< 100 | O=c1ccn(-c2ccc(F)c(F)c2)nc1Cc1cccc(-c2ncc(OCc3ccccc3)cn2)c1 [Example 124, 3-{3-[5-(benzyloxy)pyrimidin-2-yl]benzyl}-1-(3,4-difluorophenyl)pyridazin-4(1H)-one]
< 100 | O=c1ccn(-c2cc(F)cc(F)c2)nc1Cc1cccc(-c2ncc(OCc3ccccc3)cn2)c1 [Example 125, 3-{3-[5-(benzyloxy)pyrimidin-2-yl]benzyl}-1-(3,5-difluorophenyl)pyridazin-4(1H)-one]
< 100 | COc1cnc(-c2cccc(Cc3nn(-c4cc(Cl)cc(C#N)c4)ccc3=O)c2)nc1 [Example 126, 3-chloro-5-{3-[3-(5-methoxypyrimidin-2-yl)benzyl]-4-oxopyridazin-1(4H)-yl}benzonitrile]
< 100 | COCCOC(=O)Nc1cccc(Cc2nn(-c3cc(Cl)cc(C#N)c3)ccc2=O)c1 [Example 127, 2-methoxyethyl (3-{[1-(3-chloro-5-cyanophenyl)-4-oxo-1,4-dihydropyridazin-3-yl]methyl}phenyl)carbamate]
< 100 | COc1cnc(-c2cccc(Cc3nn(-c4cc(F)cc(C#N)c4)ccc3=O)c2)nc1 [Example 128, 3-fluoro-5-{3-[3-(5-methoxypyrimidin-2-yl)benzyl]-4-oxopyridazin-1(4H)-yl}benzonitrile]
< 100 | COCCOC(=O)Nc1cccc(Cc2nn(-c3cncc(C#N)c3)ccc2=O)c1 [Example 129, 2-methoxyethyl (3-{[1-(5-cyanopyridin-3-yl)-4-oxo-1,4-dihydropyridazin-3-yl]methyl}phenyl)carbamate]
< 100 | COCCOc1cnc(-c2cccc(Cc3nn(-c4cncc(C#N)c4)ccc3=O)c2)nc1 [Example 132, 5-[3-{3-[5-(2-methoxyethoxy)pyrimidin-2-yl]benzyl}-4-oxopyridazin-1(4H)-yl]pyridine-3-carbonitrile]
< 100 | CCOc1cnc(-c2cccc(Cc3nn(-c4cc(F)cc(C#N)c4)ccc3=O)c2)nc1 [Example 133, 3-{3-[3-(5-ethoxypyrimidin-2-yl)benzyl]-4-oxopyridazin-1(4H)-yl}-5-fluorobenzonitrile]
< 100 | COCCOc1cnc(-c2cccc(Cc3nn(-c4cc(F)cc(C#N)c4)ccc3=O)c2)nc1 [Example 134, 3-fluoro-5-[3-{3-[5-(2-methoxyethoxy)pyrimidin-2-yl]benzyl}-4-oxopyridazin-1(4H)-yl]benzonitrile]
< 100 | CCOC(=O)Nc1cccc(Cc2nn(-c3cccc(C#N)c3)ccc2=O)c1 [Example 135, ethyl (3-{[1-(3-cyanophenyl)-4-oxo-1,4-dihydropyridazin-3-yl]methyl}phenyl)carbamate]
< 100 | CCOc1cnc(-c2cccc(Cc3nn(-c4cncc(C#N)c4)ccc3=O)c2)nc1 [Example 136, 5-{3-[3-(5-ethoxypyrimidin-2-yl)benzyl]-4-oxopyridazin-1(4H)-yl}pyridine-3-carbonitrile]
< 100 | CCOc1cnc(-c2cccc(Cc3nn(-c4ccc(C#N)cc4)ccc3=O)c2)nc1 [Example 137, 4-{3-[3-(5-ethoxypyrimidin-2-yl)benzyl]-4-oxopyridazin-1(4H)-yl}benzonitrile]
